# US8933039B2 (NPS Pharmaceuticals, Inc., priority 1995, dated 2015)
# Non-standard residues stand in square brackets, D forms with d. Phg = N[C@H](C(=O)O)c1ccccc1; Tle = CC(C)(C)[C@H](N)C(=O)O; Nva = CCC[C@H](N)C(=O)O; Aib = CC(C)(N)C(=O)O; βAla = NCCC(=O)O
# Test system: dipeptidyl peptidase IV (DPP-IV)
# Assay: human placental DPP-IV (Calbiochem), 0.125 mU, added to test peptide in PBS at pH 7.4
# Conditions: 37° C., up to 24 hours
not cleaved,cleaved bond,Substance
0% cleaved by DPP-IV,,[Val2]GLP-2(1-33)
0% cleaved by DPP-IV,,[Ile2]hGLP-2(1-33) (H-HIDGSFSDEMNTILDNLAARDFINWLIQTKITD-OH)
0% cleaved by DPP-IV,,"[Gly2,Ala24]hGLP-2(1-33) (H-HGDGSFSDEMNTILDNLAARDFIAWLIQTKITD-OH)"
0% cleaved by DPP-IV,,"[Gly2,Ala5]hGLP-2(1-33) (H-HGDGAFSDEMNTILDNLAARDFINWLIQTKITD-OH)"
0% cleaved by DPP-IV,,[PhGly2]hGLP-2(1-33) (H-H[Phg]DGSFSDEMNTILDNLAARDFINWLIQTKITD-OH; SMILES CC[C@H](C)[C@H](NC(=O)[C@H](Cc1ccccc1)NC(=O)[C@H](CC(=O)O)NC(=O)[C@H](CCCNC(=N)N)NC(=O)[C@H](C)NC(=O)[C@H](C)NC(=O)[C@H](CC(C)C)NC(=O)[C@H](CC(N)=O)NC(=O)[C@H](CC(=O)O)NC(=O)[C@H](CC(C)C)NC(=O)[C@@H](NC(=O)[C@@H](NC(=O)[C@H](CC(N)=O)NC(=O)[C@H](CCSC)NC(=O)[C@H](CCC(=O)O)NC(=O)[C@H](CC(=O)O)NC(=O)[C@H](CO)NC(=O)[C@H](Cc1ccccc1)NC(=O)[C@H](CO)NC(=O)CNC(=O)[C@H](CC(=O)O)NC(=O)[C@@H](NC(=O)[C@@H](N)Cc1c[nH]cn1)c1ccccc1)[C@@H](C)O)[C@@H](C)CC)C(=O)N[C@@H](CC(N)=O)C(=O)N[C@@H](Cc1c[nH]c2ccccc12)C(=O)N[C@@H](CC(C)C)C(=O)N[C@H](C(=O)N[C@@H](CCC(N)=O)C(=O)N[C@H](C(=O)N[C@@H](CCCCN)C(=O)N[C@H](C(=O)N[C@H](C(=O)N[C@@H](CC(=O)O)C(=O)O)[C@@H](C)O)[C@@H](C)CC)[C@@H](C)O)[C@@H](C)CC)
0% cleaved by DPP-IV,,[Arg-l]ratGLP-2(-1-33) (H-RHADGSFSDEMNTILDNLATRDFINWLIQTKITD-OH)
0% cleaved by DPP-IV,,[Asn2]hGLP-2(1-33) (H-HNDGSFSDEMNTILDNLAARDFINWLIQTKITD-OH)
0% cleaved by DPP-IV,,[His2]hGLP-2(1-33) (H-HHDGSFSDEMNTILDNLAARDFINWLIQTKITD-OH)
0% cleaved by DPP-IV,,"[Arg-2,Arg-1]ratGLP-2(2-33)"
0% cleaved by DPP-IV,,[Phe2]hGLP-2(1-33) (H-HFDGSFSDEMNTILDNLAARDFINWLIQTKITD-OH)
0% cleaved by DPP-IV,,[Gly2]hGLP-2(1-33)
0% cleaved by DPP-IV,,[D-Ala2]hGLP-2(1-33)
0% cleaved by DPP-IV,,[Ser2]hGLP-2(1-33) (H-HSDGSFSDEMNTILDNLAARDFINWLIQTKITD-OH)
0% cleaved by DPP-IV,,[tBuGly2]hGLP-2 (H-H[Tle]DGSFSDEMNTILDNLAARDFINWLIQTKITD-OH; SMILES CC[C@H](C)[C@H](NC(=O)[C@H](Cc1ccccc1)NC(=O)[C@H](CC(=O)O)NC(=O)[C@H](CCCNC(=N)N)NC(=O)[C@H](C)NC(=O)[C@H](C)NC(=O)[C@H](CC(C)C)NC(=O)[C@H](CC(N)=O)NC(=O)[C@H](CC(=O)O)NC(=O)[C@H](CC(C)C)NC(=O)[C@@H](NC(=O)[C@@H](NC(=O)[C@H](CC(N)=O)NC(=O)[C@H](CCSC)NC(=O)[C@H](CCC(=O)O)NC(=O)[C@H](CC(=O)O)NC(=O)[C@H](CO)NC(=O)[C@H](Cc1ccccc1)NC(=O)[C@H](CO)NC(=O)CNC(=O)[C@H](CC(=O)O)NC(=O)[C@@H](NC(=O)[C@@H](N)Cc1c[nH]cn1)C(C)(C)C)[C@@H](C)O)[C@@H](C)CC)C(=O)N[C@@H](CC(N)=O)C(=O)N[C@@H](Cc1c[nH]c2ccccc12)C(=O)N[C@@H](CC(C)C)C(=O)N[C@H](C(=O)N[C@@H](CCC(N)=O)C(=O)N[C@H](C(=O)N[C@@H](CCCCN)C(=O)N[C@H](C(=O)N[C@H](C(=O)N[C@@H](CC(=O)O)C(=O)O)[C@@H](C)O)[C@@H](C)CC)[C@@H](C)O)[C@@H](C)CC)
0% cleaved by DPP-IV,,"[Gly2, Tyr34]hGLP-2(1-34)"
0% cleaved by DPP-IV,,[Met2]hGLP-2(1-33) (H-HMDGSFSDEMNTILDNLAARDFINWLIQTKITD-OH)
0% cleaved by DPP-IV,,[Nval2]hGLP-2(1-33) (H-H[Nva]DGSFSDEMNTILDNLAARDFINWLIQTKITD-OH; SMILES CCC[C@H](NC(=O)[C@@H](N)Cc1c[nH]cn1)C(=O)N[C@@H](CC(=O)O)C(=O)NCC(=O)N[C@@H](CO)C(=O)N[C@@H](Cc1ccccc1)C(=O)N[C@@H](CO)C(=O)N[C@@H](CC(=O)O)C(=O)N[C@@H](CCC(=O)O)C(=O)N[C@@H](CCSC)C(=O)N[C@@H](CC(N)=O)C(=O)N[C@H](C(=O)N[C@H](C(=O)N[C@@H](CC(C)C)C(=O)N[C@@H](CC(=O)O)C(=O)N[C@@H](CC(N)=O)C(=O)N[C@@H](CC(C)C)C(=O)N[C@@H](C)C(=O)N[C@@H](C)C(=O)N[C@@H](CCCNC(=N)N)C(=O)N[C@@H](CC(=O)O)C(=O)N[C@@H](Cc1ccccc1)C(=O)N[C@H](C(=O)N[C@@H](CC(N)=O)C(=O)N[C@@H](Cc1c[nH]c2ccccc12)C(=O)N[C@@H](CC(C)C)C(=O)N[C@H](C(=O)N[C@@H](CCC(N)=O)C(=O)N[C@H](C(=O)N[C@@H](CCCCN)C(=O)N[C@H](C(=O)N[C@H](C(=O)N[C@@H](CC(=O)O)C(=O)O)[C@@H](C)O)[C@@H](C)CC)[C@@H](C)O)[C@@H](C)CC)[C@@H](C)CC)[C@@H](C)CC)[C@@H](C)O)
0% cleaved by DPP-IV,,[bAla2]hGLP-2(1-33) (H-H[βAla]DGSFSDEMNTILDNLAARDFINWLIQTKITD-OH; SMILES CC[C@H](C)[C@H](NC(=O)[C@H](Cc1ccccc1)NC(=O)[C@H](CC(=O)O)NC(=O)[C@H](CCCNC(=N)N)NC(=O)[C@H](C)NC(=O)[C@H](C)NC(=O)[C@H](CC(C)C)NC(=O)[C@H](CC(N)=O)NC(=O)[C@H](CC(=O)O)NC(=O)[C@H](CC(C)C)NC(=O)[C@@H](NC(=O)[C@@H](NC(=O)[C@H](CC(N)=O)NC(=O)[C@H](CCSC)NC(=O)[C@H](CCC(=O)O)NC(=O)[C@H](CC(=O)O)NC(=O)[C@H](CO)NC(=O)[C@H](Cc1ccccc1)NC(=O)[C@H](CO)NC(=O)CNC(=O)[C@H](CC(=O)O)NC(=O)CCNC(=O)[C@@H](N)Cc1c[nH]cn1)[C@@H](C)O)[C@@H](C)CC)C(=O)N[C@@H](CC(N)=O)C(=O)N[C@@H](Cc1c[nH]c2ccccc12)C(=O)N[C@@H](CC(C)C)C(=O)N[C@H](C(=O)N[C@@H](CCC(N)=O)C(=O)N[C@H](C(=O)N[C@@H](CCCCN)C(=O)N[C@H](C(=O)N[C@H](C(=O)N[C@@H](CC(=O)O)C(=O)O)[C@@H](C)O)[C@@H](C)CC)[C@@H](C)O)[C@@H](C)CC)

not cleaved,cleaved bond,Substance
0% cleaved by DPP-IV,,[Aib2]hGLP-2(1-33) (H-H[Aib]DGSFSDEMNTILDNLAARDFINWLIQTKITD-OH; SMILES CC[C@H](C)[C@H](NC(=O)[C@H](Cc1ccccc1)NC(=O)[C@H](CC(=O)O)NC(=O)[C@H](CCCNC(=N)N)NC(=O)[C@H](C)NC(=O)[C@H](C)NC(=O)[C@H](CC(C)C)NC(=O)[C@H](CC(N)=O)NC(=O)[C@H](CC(=O)O)NC(=O)[C@H](CC(C)C)NC(=O)[C@@H](NC(=O)[C@@H](NC(=O)[C@H](CC(N)=O)NC(=O)[C@H](CCSC)NC(=O)[C@H](CCC(=O)O)NC(=O)[C@H](CC(=O)O)NC(=O)[C@H](CO)NC(=O)[C@H](Cc1ccccc1)NC(=O)[C@H](CO)NC(=O)CNC(=O)[C@H](CC(=O)O)NC(=O)C(C)(C)NC(=O)[C@@H](N)Cc1c[nH]cn1)[C@@H](C)O)[C@@H](C)CC)C(=O)N[C@@H](CC(N)=O)C(=O)N[C@@H](Cc1c[nH]c2ccccc12)C(=O)N[C@@H](CC(C)C)C(=O)N[C@H](C(=O)N[C@@H](CCC(N)=O)C(=O)N[C@H](C(=O)N[C@@H](CCCCN)C(=O)N[C@H](C(=O)N[C@H](C(=O)N[C@@H](CC(=O)O)C(=O)O)[C@@H](C)O)[C@@H](C)CC)[C@@H](C)O)[C@@H](C)CC)
0% cleaved by DPP-IV,,[Asp1]hGLP-2(1-33) (H-DADGSFSDEMNTILDNLAARDFINWLIQTKITD-OH)
0% cleaved by DPP-IV,,"[Gly2,Ala4]hGLP-2(1-33) (H-HGDASFSDEMNTILDNLAARDFINWLIQTKITD-OH)"
0% cleaved by DPP-IV,,[Lys2]hGLP-2(1-33) (H-HKDGSFSDEMNTILDNLAARDFINWLIQTKITD-OH)
,"Ala2-Asp3, 24 hours",[Thr^19]hGLP-2(1-33) (H-HADGSFSDEMNTILDNLATRDFINWLIQTKITD-OH)
0% cleaved by DPP-IV,,[Gln2]hGLP-2(1-33) (H-HQDGSFSDEMNTILDNLAARDFINWLIQTKITD-OH)
0% cleaved by DPP-IV,,Ac-ratGLP-2(1-33) (Ac-HADGSFSDEMNTILDNLATRDFINWLIQTKITD-OH)
0% cleaved by DPP-IV,,[Pro1]hGLP-2(1-33) (H-PADGSFSDEMNTILDNLAARDFINWLIQTKITD-OH)
0% cleaved by DPP-IV,,"[Tyr1, Gly2]hGLP-2(1-33) (H-YGDGSFSDEMNTILDNLAARDFINWLIQTKITD-OH)"
0% cleaved by DPP-IV,,[Glu2]hGLP-2(1-33) (H-HEDGSFSDEMNTILDNLAARDFINWLIQTKITD-OH)
0% cleaved by DPP-IV,,"[Gly2, Arg34]hGLP-2(1-34)"
0% cleaved by DPP-IV,,[Pro3]hGLP-2(1-33) (H-HAPGSFSDEMNTILDNLAARDFINWLIQTKITD-OH)
0% cleaved by DPP-IV,,[Tyr2]hGLP-2(1-33) (H-HYDGSFSDEMNTILDNLAARDFINWLIQTKITD-OH)
0% cleaved by DPP-IV,,"[Gly2,Ala3]hGLP-2(1-33) (H-HGAGSFSDEMNTILDNLAARDFINWLIQTKITD-OH)"
0% cleaved by DPP-IV,,"[Ala1,Gly2]hGLP-2(1-33) (H-AGDGSFSDEMNTILDNLAARDFINWLIQTKITD-OH)"
0% cleaved by DPP-IV,,[Thr2]hGLP-2(1-33) (H-HTDGSFSDEMNTILDNLAARDFINWLIQTKITD-OH)
0% cleaved by DPP-IV,,[Asp2]hGLP-2(1-33) (H-HDDGSFSDEMNTILDNLAARDFINWLIQTKITD-OH)
